Marks after values point to notes of the source that are not given here.
Legend:
[1] = system: Raji cells; experiment: colony-forming ability (CFA) assay, ADM; type: cell-based; conditions: ADM 5 ng/mL alone; 14 days
Experimental: Analysis for colony forming ability (CFA): U937 cells (ATCC), in the logarithmic phase, were maintained in RPMI 1640 medium supplemented with 20% FBS and 0.4% methyl cellulose (Sigma) by the semi-solid colony culture method and were adjusted to a density of 5×10^3 cells/mL. The cells were divided into control groups and test groups, and each group was assayed in triple wells. U937 cells in the control groups were treated with DNR alone, with the final concentrations of 0 ng/mL and 0.5 ng/mL. U937 cells in the test group were treated with DNR of various concentrations combined with PDCD5 of various concentrations, while the final concentrations of PDCD5 were 0 μg/mL, 0.625 μg/mL, 1.25 μg/mL, and 2.5 μg/mL, respectively. After incubation for 14 days in a 37° C., 5% CO2 and saturatedly humidified incubator, a colony with more than 30 cells was counted by an inverted microscope in order to analyze colony forming ability of each group. […]
Methods: Colony-forming ability (CFA) assay: Raji cells of logarithmic growth phase were cultured, and the method was the same as that in Example 8. […] The numbers of colonies (containing≧30 cells) were counted by inverted microscope to observe the CFA, which is indicated by the ratio of average number of colony formation in each of the test groups versus that of the untreated control group.

[2] = system: K562 cells; experiment: Annexin-V apoptosis by flow cytometry, Ara-C; type: cell-based; conditions: Ara-C 0.1 μg/mL; PDCD5 60 μg/mL where combined; 48 hours
Experimental: Methods: Cell staining with FITC/Annexin-V and cell apoptosis detection in vitro by flow cytometry: K562 cells (ATCC) were maintained in RPMI 1640 (Life Technologies, USA) supplemented with 10% FBS (Hyclone, USA), and were plated in 24-well culture dishes to a density of 2×10^5 cells per well. rhPDCD5 protein was added in each well with a final concentration of 15 μg/mL, 30 μg/mL and 60 μg/mL, respectively. Chemotherapeutic drug Ara-C (Pharmacia, Italia) was then added with a final concentration of 0.1 μg/mL and RPMI 1640 medium supplemented with 10% FBS was added to bring the culture system to 1 mL. After incubation for 48 hours, the cells were stained with Annexin-V/PI (Biosea) and then were analyzed for apoptosis by flow cytometry.

[3] = system: Raji cells; experiment: FITC/Annexin-V apoptosis by flow cytometry, DNR; type: cell-based; conditions: DNR 0.05 μg/mL; PDCD5 5 μg/mL where combined; 24 h
Experimental: Methods: Raji cells were cultured in RPMI 1640 medium (Life Technologies, USA) supplemented with 10% Fetal Bovine Serum (FBS, Hyclone, USA). The cells were seeded in 24-well plates with 2×10^5 cells per well. rhPDCD5 was added to each well and the final concentrations were 0 μg/mL, 2.5 μg/mL and 5 μg/mL, respectively. Subsequently, DNR was added and the final concentrations were 0 μg/mL and 0.05 μg/mL, and RPMI 1640 medium supplemented with 10% FBS was added to ensure the system was brought to 1 mL. After 24 h incubation, the cells were stained with FITC/Annexin-V (Beijing Biosea Biotechnology Co., Ltd.) and the apoptosis was detected by flow cytometry.

[4] = system: U937 xenografts; experiment: U937 nude mice xenograft model, DNR; type: in vivo, BALB/c nude mice
Experimental: Methods: U937 nude mice xenograft model: BALB/c nude mice (5-6 weeks of age) were pretreated with cyclophosphamide (100 mg/kg, injected intraperitoneally once a day for two consecutive days). On day 3, 1×10^7 (100 μl) of U937 cells were subcutaneously (s.c.) injected into a single flank of each of the mice. The treatments began on day 7 after inoculation when the average tumor diameter reached about 5 mm. The mice were divided randomly into four groups (n=6, i.e., six mice in each group) and treated with normal saline (NS), rhPDCD5 (40 μg, locally injected into the tumor), DNR (40 μg, intraperitoneal) or DNR (40 μg) plus rhPDCD5 (40 μg), once a day for 8 consecutive days.
Tumor volume (V) was determined every other day by vernier caliper measurements and calculated based on the equation of V=ab^2/2, where “a” refers to a long tumor diameter and “b” refers to a short diameter, then tumor volume growth curve was drawn. The percentage of reductions in tumor growth was calculated using the formula: [1-(Tf-Ti)/(Cf-Ci)]×100, where Tf and Ti are the final and initial mean tumor volumes, respectively, of the group receiving a specific treatment, and Cf and Ci are the final and initial mean tumor volumes, respectively, of the NS control group. After the treatment, tumors were collected and weighed and tissues were sectioned and processed by histological hematoxylin and eosin (H&E) staining. Results were statistically analyzed using SPSS 13.0. The measurements were expressed as the mean±standard deviation. Data were analyzed by the single-factor ANOVA and Student's t test and are presented as mean±standard deviation (SD). P<0.05 was considered statistically significant.

[5] = system: U937 cells; experiment: cell apoptosis assay, DNR; type: cell-based; conditions: PDCD5 5 μg/mL where combined, 24 hours
Experimental: Methods: Cell apoptosis assay: U937 cells (ATCC), in the logarithmic phase, were maintained in RPMI 1640 (Life Technologies, USA) supplemented with 10% FBS (Hyclone, USA), and were adjusted to a density of 2×10^5 cells/mL and then were divided into control groups and test groups. U937 cells in the control groups were treated with DNR (Pharmacia Italia SPA) alone, with the final concentrations of 0 μg/mL, 0.05 μg/mL, and 0.1 μg/mL. U937 cells in the test groups were treated with DNR of various concentrations combined with PDCD5 of various concentrations, with the final concentrations of PDCD5 being 0 μg/mL, 2.5 μg/mL, and 5 μg/mL, respectively. After being incubated for 24 hours in a 37° C., 5% CO2 and saturatedly humidified incubator, the cells were stained with Annexin-V/PI (Biosea) and then were analyzed for apoptosis with a FACSCalibur flow cytometer.

[6] = system: U937 cells; experiment: colony forming ability (CFA), DNR; type: cell-based; conditions: DNR 0.5 ng/mL alone; 14 days
Experimental: (§1) Analysis for colony forming ability (CFA): U937 cells (ATCC), in the logarithmic phase, were maintained in RPMI 1640 medium supplemented with 20% FBS and 0.4% methyl cellulose (Sigma) by the semi-solid colony culture method and were adjusted to a density of 5×10^3 cells/mL. The cells were divided into control groups and test groups, and each group was assayed in triple wells. U937 cells in the control groups were treated with DNR alone, with the final concentrations of 0 ng/mL and 0.5 ng/mL. U937 cells in the test group were treated with DNR of various concentrations combined with PDCD5 of various concentrations, while the final concentrations of PDCD5 were 0 μg/mL, 0.625 μg/mL, 1.25 μg/mL, and 2.5 μg/mL, respectively. After incubation for 14 days in a 37° C., 5% CO2 and saturatedly humidified incubator, a colony with more than 30 cells was counted by an inverted microscope in order to analyze colony forming ability of each group. The colony forming ability was shown as the ratio of average number of colony in each group versus that of the untreated control group in which the final concentrations of DNR and PDCD5 were 0 μg/mL.

[7] = system: Jurkat cells; experiment: FITC/Annexin-V apoptosis by flow cytometry, DNR; type: cell-based; conditions: DNR 0.05 μg/mL; PDCD5 5 μg/mL where combined; 24 h
Experimental: Methods: The density of Jurkat cells were adjusted by RPMI 1640 medium (Life Technologies, USA) supplemented with 10% Fetal Bovine Serum (FBS, Hyclone, USA). […] Subsequently, DNR (Pharmacia Italia S.P.A) was added with its final concentration of 0.05 μg/mL, and RPMI 1640 medium supplemented with 10% FBS was added to ensure the system to be 1 mL. After 24h incubation, the sample was stained with FITC/Annexin-V (Beijing Biosea Biotechnology CO., LTD) and detected for apoptosis by flow cytometry.

[8] = system: mouse livers; experiment: HE staining of liver paraffin sections of treated K562 xenograft mice; type: in vivo, BALB/c nu/nu mice; conditions: no PDCD5; Imatinib 1.2 mg oral or IDR 25 μg i.p.; n=6
Experimental: (§2) Methods: BALB/c nu/nu female mice (6-8 weeks of age) were injected intraperitoneally with cyclophosphamide (CTX) (Jiangsu Hengrui Medicine Co., Ltd.), 2 mg/day per mouse for two days. One day after the second cyclophosphamide injection, 1.5×10^7 of K562 cells were injected subcutaneously into the single armpit of each of the mice. The mice bearing K562 cell xenografts were divided randomly into nine groups (n=6, i.e., six mice in each group) and each of the mice was i.p. treated, respectively, with normal saline, PDCD5, IDR (Sigma Corporation), and IDR plus PDCD5. […] At the end of the experiment, mice were killed. The mice were the same batch of that of Example 6. The excised liver of mice after treatment were fixed in 10% neutrally buffered formalin and then embedded in paraffin after dehydration. The paraffin embedding was cut and paraffin sections after HE staining were used to observe the necrosis of experimental mouse livers. Meanwhile, paraffin sections after Tunel (Roche Inc.) staining were used to observe the apoptosis of experimental mouse livers, and then the number of apoptotic cells was counted in five high-power microscope field for statistical analysis.

[9] = system: mice hearts; experiment: HE staining of heart paraffin sections of treated K562 xenograft mice; type: in vivo, BALB/c nu/nu mice; conditions: no PDCD5; Imatinib 1.2 mg oral or IDR 25 μg i.p.; n=6
Experimental: as §2, with “hearts” for “liver”, “myocardial congestion, hemorrhage, and myofiber degeneration” for “necrosis”, “heart” for “experimental mouse livers. Meanwhile, paraffin sections after Tunel (Roche Inc.) staining were used to observe the apoptosis of experimental mouse livers, and then the number of apoptotic cells was counted”, “mice.” for “five high-power microscope field for statistical analysis.”

[10] = system: HL-60 cells; experiment: cell apoptosis assay, As2O3; type: cell-based; conditions: for rate of apoptosis: PDCD5 20 μg/mL where combined, 24 h
Experimental: Methods: Cell apoptosis assay: HL-60 cells (ATCC) of logarithmic growth phase were cultured and the density of cells was 2×10^5/mL. The cells were divided into control and test groups. In the control groups, the HL60 cells were treated only with As2O3 (Harbin Yida Pharmaceutical Co., Ltd.), and the final concentration of As2O3 were 0 μg/mL, 0.25 μg/mL and 0.5 μg/mL, respectively. In the test groups, the HL60 cells were treated with As2O3 in the various concentrations combined with PDCD5 in various concentrations, the final concentrations of PDCD5 being 0 μg/mL, 5 μg/mL, 10 μg/mL and 20 μg/mL, respectively. The cells were incubated in a 37° C., 5% CO2 and saturatedly humidified incubator for 24 h, and subsequently were stained with Annexin-V/PI and detected for apoptosis by flow cytometer.

[11] = system: HL60 cells; experiment: colony-forming ability (CFA) assay, As2O3; type: cell-based; conditions: As2O3 0.25 μg/mL alone; 14 days
Experimental: as §1
Colony-forming ability (CFA) assay: HL60 cells of logarithmic growth phase were cultured by a method identical to that in Example 8. The cells were divided into control and test groups (each with 3 wells): In the control groups, the HL60 cells were treated only with arsenic trioxide and the final concentration of which were 0 μg/mL and 0.25 μg/mL, respectively; in the test groups, the HL60 cells were treated with different concentrations of As2O3, which was combined with different concentrations of PDCD5, the final concentrations of PDCD5 were 0 μg/mL, 5 μg/mL, 10 μg/mL and 20 μg/mL, respectively. Cultures were incubated in a 37° C., 5% CO2 and saturatedly humidified incubator for 14 days. The numbers of colonies (containing≧30 cells) were counted on day 14 by inverted microscope. The colony-forming ability was observed as the ratio of the number of average colony formation in the test groups versus that in the untreated control group. […]

Question: With COc1cccc2c1C(=O)c1c(O)c3c(c(O)c1C2=O)C[C@@](O)(C(=O)CO)C[C@@H]3O[C@H]1C[C@H](N)[C@H](O)[C@H](C)O1 [ADM, adriamycin] as the molecule, how does the “CFA (ratio to untreated control)” value [1] read?
Answer: The value was 32%.

Question: For Nc1ccn([C@@H]2O[C@H](CO)[C@@H](O)[C@@H]2O)c(=O)n1 [Ara-C, arabinoside], which apoptosis rate [2] is on record?
Answer: The apoptosis rate was 34.87%.

Question: For COc1cccc2c1C(=O)c1c(O)c3c(c(O)c1C2=O)C[C@@](O)(C(C)=O)C[C@@H]3O[C@H]1C[C@H](N)[C@H](O)[C@H](C)O1 [DNR, Daunorubicin], which rate of apoptosis [3] is on record?
Answer: The rate of apoptosis was 17.46%.

Question: And the average tumor weight ([4]; after the treatment, DNR 40 μg, PDCD5 40 μg where combined)?
Answer: The average tumor weight was 0.45 ± 0.15 g.

Question: What about the “inhibition of tumor growth (percentage of inhibition on tumor sizes vs control group)” value ([4]; day 15, DNR 40 μg, rhPDCD5 40 μg where combined) of the same molecule?
Answer: The value was 31.97%.

Question: What about the “Average size of tumors (mean ± SD)” value ([4]; fifteenth day, rhPDCD5 40 μg into the tumor, DNR 40 μg intraperitoneal, once a day for 8 days) of the same molecule?
Answer: Its value is 410.27 ± 154.93* mm^3.

Question: What about the rate of apoptosis ([5]; high-dose DNR 0.1 μg/mL) of the same molecule?
Answer: The rate of apoptosis was 23.01%.

Question: And the rate of apoptosis ([5]; low-dose DNR 0.05 μg/mL)?
Answer: The rate of apoptosis was 21.23%.

Question: What about the “CFA (ratio to untreated control)” value [6] of the same molecule?
Answer: The value was 79%.

Question: What about the rate of apoptosis [7] of the same molecule?
Answer: Its rate of apoptosis is 27.01%.

Question: How did the “Sinusoidal expansion, congestive hemorrhage and necrosis of liver cells surrounding sinusoid: mice graded +” value [8] turn out when Cc1ccc(NC(=O)c2ccc(CN3CCN(C)CC3)cc2)cc1Nc1nccc(-c2cccnc2)n1 [Imatinib] was run?
Answer: Its value is 2 number of mice.

Question: And the “Sinusoidal expansion, congestive hemorrhage and necrosis of liver cells surrounding sinusoid: mice graded ++” value [8]?
Answer: The value was 0 number of mice.

Question: What about the “Sinusoidal expansion, congestive hemorrhage and necrosis of liver cells surrounding sinusoid: mice graded +/−” value [8] of the same molecule?
Answer: The value was 0 number of mice.

Question: And the “Sinusoidal expansion, congestive hemorrhage and necrosis of liver cells surrounding sinusoid: mice graded −” value [8]?
Answer: Its value is 4 number of mice.

Question: What about the “Myocardial hemorrhage and congestion: mice graded +” value [9] of the same molecule?
Answer: Its value is 1 number of mice.

Question: And the “Myocardial hemorrhage and congestion: mice graded ++” value [9]?
Answer: The value was 1 number of mice.

Question: And the “Myocardial hemorrhage and congestion: mice graded −” value [9]?
Answer: The value was 4 number of mice.

Question: And the “Myofiber degeneration: mice graded +” value [9]?
Answer: The value was 0 number of mice.

Question: What about the “Myofiber degeneration: mice graded −” value [9] of the same molecule?
Answer: Its value is 6 number of mice.

Question: How did the “enhancement of induced apoptosis” value [10] turn out when arsenious acid [As2O3] was run?
Answer: Its value is “can enhance PDCD5-induced apoptosis”.

Question: And the rate of apoptosis ([10]; high-dose As2O3 0.5 μg/mL)?
Answer: The rate of apoptosis was 78.02%.

Question: And the rate of apoptosis ([10]; low-dose As2O3 0.25 μg/mL)?
Answer: Its rate of apoptosis is 21.23%.

Question: What about the “CFA (ratio to untreated control)” value [11] of the same molecule?
Answer: Its value is 52%.
